According to US4027017A, “Method of treating alcoholism” (Chugai Seiyaku Kabushiki Kaisha, priority 1974, dated 1977):
Values joined by “and” are separate entries in the source; they are usually repeats but may differ in a detail not shown here. Identical values can stand only once. “Also recorded” adds a separate entry of the source.

Key:
neutral lipid in liver = assay: Inhibiting action for accumulation of neutral lipid in liver (ethanol-treated rats; Van Handel and Zilver-Smit method); type: in vivo, Sprague Dawley strain male rats; settings: 160 mg/kg oral in corn oil, 30 min before ethanol 6 g/kg oral; liver taken 24 hours after
Experimental: Inhibiting Action for Accumulation of Neutral Lipid in Liver […] Each rat was orally administered with trisodium uridine-5'-diphosphate glucuronic acid (UDPGA-3.Na) as a suspension in corn oil in a dose of 160 mg/kg.body weight. Thirty minutes after the administration, each rat was orally administered with ethanol as a 50% aqueous solution in a dose of 6 g/kg.body weight and, 24 hours after the administration, the liver was taken out and an amount of neutral lipid contained therein was determined by the Van Handel and Zilver-Smit method. For control, a glucose aqueous solution having a caloric content equivalent to the same amount of ethanol was used instead of ethanol.

[1] = test system: Sprague Dawley strain male rats; assay: Behaviour and righting reflex after ethanol, UDPGA.3Na given 30 minutes before ethanol; type: in vivo; settings: 160 mg/kg oral 30 min before ethanol 6 g/kg
Experimental: The Sprague Dawley strain male rats weighing 260±30 g which had been fed rat food commerically available as CLEA CE-2 and prevented from eating food for 12 hours just before the experiment were divided into groups each of 10-13 members each. Each rat was orally administered trisodium uridine-5'-diphosphate glucuronic acid (UDPGA.3Na) in the form of a suspension in corn oil in an amount 160 mg/kg.body weight. Thirty minutes after the administration, ethanol as a 50% aqueous solution was orally administered in a dose of 6 g/kg.body weight and then behavior of the rat was observed over 24 hours.

[2] = test system: Sprague Dawley strain male rats; assay: Behaviour and righting reflex after ethanol, UDPGA.3Na given 30 minutes after ethanol; type: in vivo; settings: 160 mg/kg oral 30 min after ethanol 6 g/kg
Experimental: The Sprague Dawley strain male rats weighing 160±30 g which were fed rat food commercially available as CLEA CE-2 and prevented from eating food for 12 hours just before the experiment was started. Each rat was administered with ethanol as a 50% aqueous solution in a dose of 6 g/kg.body weight. Thirty minutes after the administration, the rat was orally administered with a suspension of trisodium uridine-5'-diphosphate glucuronic acid (UDPGA.3Na) in corn oil in a dose of 160 mg/kg.body weight based on UDPGA.3Na. The behavior of the rat was observed over 24 hours after the last administration.

alcohol level in blood = assay: Measurement of alcohol level in blood (alcoholic dehydrogenase method) and behavior; type: in vivo, Sprague Dawley strain female rats; settings: 30 min before ethanol 6 g/kg
Experimental: Measurement of Alcohol Level in Blood
In this Example, Sprague Dawley strain female rats (weighing 150±20 g) divided into groups of 9-12 members each were used.
After abstention from food overnight each rat was orally administered trisodium uridine-5'-diphosphate glucuronic acid (UDPGA.3Na) in the form of a physiological saline solution in a dose of 160 mg/kg.body weight as an effective ingredient and, 30 minutes after the administration, the rat was administered with ethanol in a dose of 6 g/kg body weight. Four hours and thirty minutes after the administration of ethanol, the rat was etherized, and blood was sampled from its heart to determine alcohol level in the blood by a alcoholic dehydrogenase method. For control, a physiological saline solution was used instead of the UDPGA.3Na solution.

O=C(O)[C@H]1O[C@H](OP(=O)(O)OP(=O)(O)OC[C@H]2O[C@@H](n3ccc(=O)[nH]c3=O)[C@H](O)[C@@H]2O)[C@H](O)[C@@H](O)[C@@H]1O [UDPGA.3Na, trisodium uridine-5'-diphosphate glucuronic acid]
% inhibition (neutral lipid in liver) (neutral lipid in liver): 59.7%
Neutral Lipid in Liver (neutral lipid in liver): 23.05 ± 10.72 mg/g
Behaviour: Deep Sleep ([1]; 3 hrs. after alcohol): 2 heads
Behaviour: Lying Flat ([1]; 3 hrs. after alcohol): 4 heads
Behaviour: Normal Walking ([1]; 3 hrs. after alcohol): 4 heads
Righting Reflex + ([1]; 3 hrs. after alcohol): 7 heads
Righting Reflex - ([1]; 3 hrs. after alcohol): 3 heads
Behaviour: Deep Sleep ([1]; 6 hrs. after alcohol): 2 heads
Behaviour: Lying Flat ([1]; 6 hrs. after alcohol): 6 heads
Behaviour: Normal Walking ([1]; 6 hrs. after alcohol): 2 heads
Righting Reflex + ([1]; 6 hrs. after alcohol): 7 heads
Righting Reflex - ([1]; 6 hrs. after alcohol): 3 heads
Behaviour: Deep Sleep ([1]; 9 hrs. after alcohol): 1 heads
Behaviour: Lying Flat ([1]; 9 hrs. after alcohol): 6 heads
Behaviour: Normal Walking ([1]; 9 hrs. after alcohol): 3 heads
Righting Reflex + ([1]; 9 hrs. after alcohol): 9 heads
Righting Reflex - ([1]; 9 hrs. after alcohol): 1 heads
Behaviour: Deep Sleep ([1]; 12 hrs. after alcohol): 0 heads
Behaviour: Lying Flat ([1]; 12 hrs. after alcohol): 0 heads
Behaviour: Normal Walking ([1]; 12 hrs. after alcohol): 10 heads
Righting Reflex + ([1]; 12 hrs. after alcohol): 10 heads
Righting Reflex - ([1]; 12 hrs. after alcohol): 0 heads
Behaviour: Deep Sleep ([1]; 18 hrs. after alcohol): 0 heads
Behaviour: Lying Flat ([1]; 18 hrs. after alcohol): 0 heads
Behaviour: Normal Walking ([1]; 18 hrs. after alcohol): 10 heads
Righting Reflex + ([1]; 18 hrs. after alcohol): 10 heads
Righting Reflex - ([1]; 18 hrs. after alcohol): 0 heads
Behaviour: Deep Sleep ([2]; 3 hrs. after alcohol): 2 heads
Behaviour: Lying Flat ([2]; 3 hrs. after alcohol): 5 heads
Behaviour: Normal Walking ([2]; 3 hrs. after alcohol): 3 heads
Righting Reflex + ([2]; 3 hrs. after alcohol): 7 heads
Righting Reflex - ([2]; 3 hrs. after alcohol): 3 heads
Behaviour: Deep Sleep ([2]; 6 hrs. after alcohol): 2 heads
Behaviour: Lying Flat ([2]; 6 hrs. after alcohol): 6 heads
Behaviour: Normal Walking ([2]; 6 hrs. after alcohol): 2 heads
Righting Reflex + ([2]; 6 hrs. after alcohol): 7 heads
Righting Reflex - ([2]; 6 hrs. after alcohol): 3 heads
Behaviour: Deep Sleep ([2]; 9 hrs. after alcohol): 1 heads
Behaviour: Lying Flat ([2]; 9 hrs. after alcohol): 3 heads
Behaviour: Normal Walking ([2]; 9 hrs. after alcohol): 6 heads
Righting Reflex + ([2]; 9 hrs. after alcohol): 8 heads
Righting Reflex - ([2]; 9 hrs. after alcohol): 2 heads
Behaviour: Deep Sleep ([2]; 12 hrs. after alcohol): 0 heads
Behaviour: Lying Flat ([2]; 12 hrs. after alcohol): 2 heads
Behaviour: Normal Walking ([2]; 12 hrs. after alcohol): 8 heads
Righting Reflex + ([2]; 12 hrs. after alcohol): 10 heads
Righting Reflex - ([2]; 12 hrs. after alcohol): 0 heads
Behaviour: Deep Sleep ([2]; 18 hrs. after alcohol): 0 heads
Behaviour: Lying Flat ([2]; 18 hrs. after alcohol): 0 heads
Behaviour: Normal Walking ([2]; 18 hrs. after alcohol): 10 heads
Righting Reflex + ([2]; 18 hrs. after alcohol): 10 heads
Righting Reflex - ([2]; 18 hrs. after alcohol): 0 heads
Ethanol level in Blood, Average (alcohol level in blood; 160 mg/kg oral in physiological saline, blood 4 h 30 min after ethanol, Confidence Limits: 98%): 1.59 ± 0.93 mg/mL
Ethanol level in Blood (individual test animals) (alcohol level in blood; 160 mg/kg oral in physiological saline, blood 4 h 30 min after ethanol, test animals 1-12 in block order): 2.21 mg/mL and 1.65 mg/mL and 1.82 mg/mL and 1.41 mg/mL and 1.19 mg/mL and 2.15 mg/mL and 0.85 mg/mL and 0.37 mg/mL and 0.63 mg/mL and 1.79 mg/mL and 2.19 mg/mL and 2.82 mg/mL
Behavior (individual test animals) (alcohol level in blood; 160 mg/kg oral in physiological saline, test animals 1-12 in block order): lying flat; also recorded: normal walking; also recorded: deep sleep
alcohol level in blood in comparison with the control (alcohol level in blood; 160 mg/kg oral, blood 4 h 30 min after ethanol): significantly lowered
